Test results taken from patent publication US9464064B2, “HCV helicase inhibitors and methods of use thereof” (University of Kansas, priority 2011, dated 2016).
≈ marks a conversion by molar mass, not a printed value.

Experiments:
NS3h_DV2 = biological target: T1, NS3h_DV2 (Dengue virus type 2, UniProt P29990); assay: RNA-stimulated ATP hydrolysis, pH 7.5, Dengue; assay type: biochemical; settings: 10 μM poly(U) RNA, read-out: ATPase w/RNA NS3h_DV2 IC50 (μM) ± SD
T1 construct: made in house
Method: (§1) To compare the effect of compounds on HCV NS3h_1b (con1) to NS3h_DV2, reactions were performed with 2 nM of either enzyme in 25 mM Tris pH 7.5, 1.25 mM MgCl2, 1.0 mM ATP, 10% DMSO, 5 μg/ml BSA, 0.01% (v/v) TWEEN 20, 0.05 mM DTT, and 10 μM poly(U) RNA at 37° C.
(§2) To further profile compound specificity, it was determined whether the compounds would inhibit homologous NS3h expressed by the Dengue virus (NS3h_DV2). […] The same assays were also repeated with HCV NS3h_1b(con1) for comparison.

NS3h_2a = biological target: T2, NS3h_2a (Hepatitis C virus genotype 2a, UniProt Q99IB8); assay: RNA helicase assay (three-stranded RNA substrate); assay type: biochemical, hepatitis C virus genotype 2a(JFH1)
T2 construct: truncated C-terminally His-tagged NS3 proteins lacking the N-terminal protease, called NS3h; His-tag (C); made in house
T2 sequence (Q99IB8 1196-1661): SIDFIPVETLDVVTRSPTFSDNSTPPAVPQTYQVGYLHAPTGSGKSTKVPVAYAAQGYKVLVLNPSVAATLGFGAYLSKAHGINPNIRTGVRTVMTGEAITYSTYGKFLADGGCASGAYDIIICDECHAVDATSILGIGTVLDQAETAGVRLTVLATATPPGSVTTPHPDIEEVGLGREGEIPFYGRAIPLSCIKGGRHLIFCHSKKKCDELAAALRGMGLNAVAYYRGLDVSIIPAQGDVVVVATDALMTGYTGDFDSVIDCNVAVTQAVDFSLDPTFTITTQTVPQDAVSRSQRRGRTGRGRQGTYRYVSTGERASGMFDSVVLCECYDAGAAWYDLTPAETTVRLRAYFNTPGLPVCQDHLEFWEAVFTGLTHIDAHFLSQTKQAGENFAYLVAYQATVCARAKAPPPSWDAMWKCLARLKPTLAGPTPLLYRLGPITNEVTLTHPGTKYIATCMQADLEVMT
Method: To act as antivirals in cells, it is also important for an HCV helicase inhibitor to inhibit the activity of the NS3h on RNA. […] As with protein specificity, no differences were uncovered regarding substrate specificity for any of the compounds tested. In other words, none of the compounds preferred to act either on DNA or RNA substrates.

NS3h_1b(con1) = biological target: T3, NS3h_1b(con1) (Hepatitis C virus genotype 1b, UniProt Q9WMX2); assay: RNA-stimulated ATP hydrolysis, pH 7.5, HCV; assay type: biochemical, hepatitis C virus genotype 1b(con1)
T3 construct: truncated C-terminally His-tagged NS3 proteins lacking the N-terminal protease, called NS3h; His-tag (C); made in house
T3 sequence (Q9WMX2 1192-1657): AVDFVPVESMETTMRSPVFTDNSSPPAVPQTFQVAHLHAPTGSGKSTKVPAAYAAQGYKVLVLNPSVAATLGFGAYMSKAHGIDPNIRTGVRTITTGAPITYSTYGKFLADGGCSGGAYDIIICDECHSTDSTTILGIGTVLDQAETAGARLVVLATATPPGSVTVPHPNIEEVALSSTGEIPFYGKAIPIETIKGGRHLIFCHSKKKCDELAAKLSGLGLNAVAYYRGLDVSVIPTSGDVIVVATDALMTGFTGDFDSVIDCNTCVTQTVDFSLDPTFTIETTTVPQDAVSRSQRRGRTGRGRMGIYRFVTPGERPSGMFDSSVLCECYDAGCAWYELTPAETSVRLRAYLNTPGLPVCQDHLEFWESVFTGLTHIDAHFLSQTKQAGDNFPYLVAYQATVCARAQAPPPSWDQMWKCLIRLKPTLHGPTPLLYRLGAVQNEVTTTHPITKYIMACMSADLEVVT
Method: as §1
as §2, with “comparison. […] However, most of the primuline derivatives were relatively potent inhibitors of RNA-stimulated ATP hydrolysis catalyzed by the Dengue enzyme under the same conditions.” for “comparison.”

[1] = Aqueous solubility (direct UV kinetic); assay type: physicochemical; settings: aqueous with cosolvent or surfactant or cyclodextrin, kinetic from dmso stock; mock assay matrix (MOPS, TWEEN 20, 5% DMSO) at pH 6.5; read-out: solubility
Method: Solubility analysis was performed using a direct UV kinetic solubility method in a 96-well format. All liquid dispense and transfer steps were performed with the FREEDOM EVO automated liquid handler (Tecan, US). Solubility measurements were performed in an aqueous buffer solution (PRISMA HT, pION Inc.) at pH 5.0, 6.2 and 7.4, in duplicate. Solubility measurements were also performed in 1×PBS pH 7.4, and in MOPS buffer pH 6.5. Samples were incubated at room temperature for a minimum of […] to achieve equilibrium, then filtered to remove any precipitate formed. The concentration of the compounds was measured by UV absorbance (250-498 nm) using the […] M200 (Tecan, US) and compared to the spectra of the precipitation-free reference solutions. Spectroscopically pure 1-Propanol (Sigma) was used as a cosolvent to suppress precipitation in the reference solutions. The solubility of each compound was determined using pSOL Evolution Plus software v3.2 (pION Inc) and was expressed as the concentration (μg/mL) of a solute in a saturated solution. Diclofenac Na (highly soluble) and Dipyridamole (poorly to moderately soluble) were used as standards. Standards and test compound stocks were made in 100% DMSO. […]

scNS4A-NS3p = biological target: T4, scNS4A-NS3p (UniProt P26663); assay: NS3 protease assay (ENZOLYTE 520), protease fragment; assay type: biochemical, hepatitis C virus genotype 1b; settings: read-out: Protease ScNS4a-NS3p IC50 (μM) ± SD; one set of assays
T4 construct: fused on or other part: NS4A cofactor peptide, from the same polyprotein, fused to the NS3 protease fragment
T4 sequence (P26663 1027-1657): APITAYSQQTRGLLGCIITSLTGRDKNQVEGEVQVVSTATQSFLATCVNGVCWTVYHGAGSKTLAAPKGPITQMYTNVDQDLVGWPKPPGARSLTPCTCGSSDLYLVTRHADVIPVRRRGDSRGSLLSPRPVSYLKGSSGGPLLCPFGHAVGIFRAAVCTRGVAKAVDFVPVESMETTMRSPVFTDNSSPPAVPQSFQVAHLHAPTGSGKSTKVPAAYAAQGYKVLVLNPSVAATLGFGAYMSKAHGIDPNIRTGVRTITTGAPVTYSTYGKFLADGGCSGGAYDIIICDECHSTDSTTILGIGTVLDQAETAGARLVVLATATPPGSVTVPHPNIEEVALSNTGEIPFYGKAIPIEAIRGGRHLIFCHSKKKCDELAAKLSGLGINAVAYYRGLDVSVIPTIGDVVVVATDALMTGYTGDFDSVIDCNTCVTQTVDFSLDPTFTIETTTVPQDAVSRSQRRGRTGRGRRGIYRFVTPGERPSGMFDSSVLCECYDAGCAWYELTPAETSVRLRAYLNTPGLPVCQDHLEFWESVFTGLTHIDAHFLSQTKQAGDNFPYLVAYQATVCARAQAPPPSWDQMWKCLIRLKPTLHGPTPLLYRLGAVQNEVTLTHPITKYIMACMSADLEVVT
Method: (§3) All oligonucleotides were purchased from Integrated DNA Technologies (IDT, Coralville, Iowa). Primuline derivatives were synthesized and purified as described herein. Three different NS3 proteins were used in this study. Two were truncated C-terminally His-tagged NS3 proteins lacking the N-terminal protease, called NS3h, the third was a full-length NS3 with the portion of NS4A needed for protease activation fused to its N-terminus, called scNS4A-NS3 (Howe, et al. (1999) Protein Sci. 8:1332-41), and the fourth was a 23 kDa scNS4A-NS3 protease fragment lacking the helicase domains, called scNS4A-NS3p (Protein One, Rockville, Md.). NS3h was expressed from two different HCV strains. NS3h_1b(con1) was from the con1 strain of genotype 1b (GENBANK accession AB114136), and NS3h_2a(JFH1) was from the JFH1 strain of HCV genotype 2a (GENBANK accession AJ238799). […] His-tagged recombinant NS3h_1b(con1), NS3h_2a(JFH1), and scNS4A-NS3 (also from genotype 1b(con1)) were expressed, and purified as previously described (Frick, et al. (2010) supra; Lam, et al. (2003) J. Virol. 77:3950-3961). The scNS4A-NS3p (genotype 1b) was from Protein One. A plasmid expressing NS3h from dengue virus strain 2 (NS3h_DV2)(GENBANK accession 2BMF) is known in the art (Xu, et al. (2005) J. Virol. 79:10278-10288), and used to express and purify NS3h_DV2 (Belon, et al. (2010) supra)
(§4) All NS3 protease assays were carried out using the 5-Carboxyfluorescein-labeled substrate from the AnaSpec. ENZOLYTE 520 Protease Assay Kit (AnaSpec, San Jose, Calif.). Each assay contained 5 nM scNS4A-NS3 or 50 nM scNS4A-NS3p, […], 5% DMSO and 1× Anaspec HCV protease assay buffer. Assays were carried out in a total volume of 20 μl in black 384-well plates with fluorescence at 520 nm measured using a BMG FLUOstar Omega fluorescence spectrophotometer. Reactions were performed with eight concentrations of a two-fold dilution series of each compound (in duplicate) starting at 100 μM.

scNS4A-NS3 = scNS4A-NS3 (Hepatitis C virus genotype 1b, UniProt Q9WMX2); assay: NS3 protease assay (ENZOLYTE 520), full-length; assay type: biochemical, hepatitis C virus genotype 1b(con1); set-up: other: average of two sets; There is also a His tag
Chain of scNS4A-NS3 (Q9WMX2 1027-1657): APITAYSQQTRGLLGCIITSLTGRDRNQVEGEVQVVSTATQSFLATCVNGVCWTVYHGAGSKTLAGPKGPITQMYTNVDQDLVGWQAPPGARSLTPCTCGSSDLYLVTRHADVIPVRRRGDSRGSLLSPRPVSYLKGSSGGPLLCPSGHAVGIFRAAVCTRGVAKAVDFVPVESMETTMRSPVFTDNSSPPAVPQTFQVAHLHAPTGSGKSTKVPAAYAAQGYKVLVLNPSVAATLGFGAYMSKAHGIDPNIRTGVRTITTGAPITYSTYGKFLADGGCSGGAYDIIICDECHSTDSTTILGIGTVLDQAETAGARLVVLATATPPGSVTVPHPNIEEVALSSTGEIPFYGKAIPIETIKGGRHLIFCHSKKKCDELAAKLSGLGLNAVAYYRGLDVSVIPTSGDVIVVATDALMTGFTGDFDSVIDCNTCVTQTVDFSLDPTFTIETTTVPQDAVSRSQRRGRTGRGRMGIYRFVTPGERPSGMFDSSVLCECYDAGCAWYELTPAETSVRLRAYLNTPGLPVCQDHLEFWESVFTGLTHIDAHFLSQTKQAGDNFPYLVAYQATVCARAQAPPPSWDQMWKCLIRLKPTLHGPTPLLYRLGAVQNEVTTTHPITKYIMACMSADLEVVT
Method: as §3, §4

T1 sequence (P29990 1646-2093): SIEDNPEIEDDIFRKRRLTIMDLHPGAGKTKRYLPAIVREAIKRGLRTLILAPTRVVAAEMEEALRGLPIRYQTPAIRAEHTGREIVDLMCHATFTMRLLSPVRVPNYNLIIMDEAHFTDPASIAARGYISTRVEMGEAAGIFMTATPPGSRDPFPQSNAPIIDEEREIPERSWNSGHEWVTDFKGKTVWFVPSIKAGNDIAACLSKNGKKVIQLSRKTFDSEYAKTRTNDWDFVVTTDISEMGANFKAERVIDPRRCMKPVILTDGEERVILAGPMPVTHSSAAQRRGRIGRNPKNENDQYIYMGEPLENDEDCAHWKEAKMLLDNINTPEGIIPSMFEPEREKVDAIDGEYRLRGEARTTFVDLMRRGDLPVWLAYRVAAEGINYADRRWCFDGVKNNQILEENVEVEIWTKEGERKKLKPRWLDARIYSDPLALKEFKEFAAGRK

Q: What does the source list for `Cc1ccc2nc(-c3ccc4nc(-c5ccc(NC(=O)c6ccc7ccccc7c6)cc5)sc4c3)sc2c1S(=O)(=O)O` [Compound 33, 2′-(4-(2-naphthamido)phenyl)-6-methyl-[2,6′-bibenzo[d]thiazole]-7-sulfonic acid]?
A: IC50 (NS3h_DV2): 3 ± 1 µM; IC50 (NS3h_2a): 3 ± 2 µM; IC50 (NS3h_1b(con1)): 52 ± 6 µM; solubility [1]: 3.7 µM (≈ 2.25 µg/mL); IC50 (scNS4A-NS3p): > 100 µM; IC50 (scNS4A-NS3): > 100 µM
